# Measurements taken from paper PMC12328707, “Potassium binding by carbonyl clusters, halophilic adaptation and catalysis of Haloferax mediterranei D-2-hydroxyacid dehydrogenase” (Communications Biology, 2025).
# Molecular target: T1, D2HDH (Haloferax mediterranei, UniProt Q2VEQ7)
# T1 construct: gene ddh; homodimer (~66 kDa; 79 kDa by gel filtration); residues 1-308; no tag mentioned
# Assay: X-ray crystal structure, […] Å
# Format: binding
# Conditions: formed by turnover in the crystallisation drop; NADP+ bound; modelled in subunit B as 2:1 mixture of 2-ketohexanoic acid and hydroxy acid
# T1 sequence (Q2VEQ7 whole entry, the tested form may be a part): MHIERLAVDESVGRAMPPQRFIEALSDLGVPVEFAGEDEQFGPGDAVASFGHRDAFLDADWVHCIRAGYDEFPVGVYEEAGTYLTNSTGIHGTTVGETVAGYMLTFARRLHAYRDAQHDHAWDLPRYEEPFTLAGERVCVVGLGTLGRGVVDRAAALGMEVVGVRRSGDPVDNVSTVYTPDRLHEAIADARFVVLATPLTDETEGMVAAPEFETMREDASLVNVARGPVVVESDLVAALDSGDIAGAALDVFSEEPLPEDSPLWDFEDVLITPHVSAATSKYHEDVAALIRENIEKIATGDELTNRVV
smiles,measurement,value
CCCC[C@@H](O)C(=O)O [D-2-hydroxyhexanoic acid],"X-ray crystal structure, 1.57 Å",D-2-hydroxyhexanoic acid (beige carbons) bound to the active site of the D2HDH/NADP^+ complex
